Experimental data reported in patent US9034863B2, “Compositions and methods for inhibiting entry of a hepatic virus” (The Board of Trustees of the University of Illinois, priority 2008, dated 2015).

Experiments:
[1] = system: HCVcc; experiment: Steady-state HCVcc RNA levels in chronically infected Huh7 cultures, 24-96 h; format: cell-based, Hepatitis C virus (HCV); conditions: 30 μM, 24-96 hours post-treatment
Experimental: Huh7 cultures were inoculated with HCVcc at an MOI of 0.01 FFU cell-1. Infected cultures were maintained for an additional 10 days to allow HCV RNA to reach steady-state levels. Cultures were then vehicle-treated, treated with ezetimibe (30 μM) or 2′-C-methylcytidine (12.5 μM). Fresh medium containing the specified treatments was replenished every day throughout the course of the experiment. Intracellular RNA was collected from triplicate wells at 24, 48, 72 and 96 hours post-treatment and HCV RNA was quantified by RT-qPCR and normalized to GAPDH.

[2] = system: HCV; experiment: Prevention of HCV infection in mice with chimeric human livers; format: in vivo; conditions: 10 mg/kg/day oral gavage from ~7 days prior to infection
Text: Alternatively, severe combined immunodeficient (SCID)/urokinase plasminogen activator (uPA) mice can be used. Mice are transplanted with primary human hepatocytes according to conventional methods (Azuma, et al. (2007) Nat. Biotechnol. 25:903-910; Bissig, et al. (2007) Proc. Natl. Acad. Sci. USA 104:20507-20511) and monitored for two months post-transplantation to assess repopulation efficiency by measuring human albumin serum levels. Using these models, mice can be assessed for the prevention of HCV infection or the inhibition of an already established infection.
Mice are injected with HCV positive human serum (of any HCV genotype) and HCV RNA serum levels are quantified daily and/or weekly to assess the efficacy with which the treatments reduces the amplification of HCV RNA levels. Evidence that ezetimibe reduces the amplification HCV levels in vivo, as compared to untreated animals, provides in vivo evidence that ezetimibe is an effective treatment for HCV in patients.

[3] = system: HCV-JFH-1; experiment: Chronic HCV-JFH-1 infection of Huh7-1 cells, inhibitor combinations, RT-qPCR 24-96 h (FIG. 3-5); format: cell-based, Hepatitis C virus (HCV)
Experimental: RT-qPCR analysis of intracellular HCV RNA levels in Huh7 cultures mock-treated, treated with ezetimibe (30 μM), PI (200 nM), IFN-α (100 U/ml), or indicated combinations thereof (n=3). Data presented are representative of multiple independent experiments.
FIG. 4A, Chronically infected Huh7-1 cell cultures (n=3) treated with ezetimibe (E), naringenin (N), interferon α (I), or combinations thereof, were harvested at 24, 48, 72 or 96 hours post-treatment, intracellular HCV levels were quantified by RT-qPCR, and are presented as HCV copies/μg RNA. FIG. 4B, Chronically infected Huh7-1 cell cultures (n=3) treated with ezetimibe (E), ferristatin (T), interferon α (I), or combinations thereof, were harvested at 24, 48, 72 or 96 hours post-treatment, intracellular HCV levels were quantified by RT-qPCR, and are presented as HCV copies/μg RNA.
Shown are the results of RT-qPCR analysis of intracellular HCV RNA levels in Huh7 cultures mock-treated, treated with ezetimibe (30 μM), polymerase inhibitor, RG7128 (1 μM), or a combination thereof (n=3).
For experiments analyzing the activity of ezetimibe in combination with a protease inhibitor, Huh7-1 cells were infected with HCV-JFH-1 and allowed to reach steady state levels of infection. The HCV-infected cells were seeded in a 96-well plate and treated with the following: medium alone, 30 μM ezetimibe, 200 nM ITMN5537, 100 μ/ml IFN-α, and combinations of the above drugs at the specified concentrations. Medium and drugs were replaced every 24 hours. Triplicate wells were harvested at 24, 48, 72 or 96 hours post-treatment, in 200 μl/well of 1×ABI lysis buffer and stored at −80° C. until RNA extraction.
Therefore, the therapeutic potential of an IFN-free antiviral cocktail was also investigated, using ezetimibe in combination with other direct acting inhibitors of HCV amplification, specifically an inhibitor of the HCV NS3/4A protease (ITMN 5537; Intermune, Brisbane, Calif.). Huh7-1 cells were infected with HCV-JFH-1 and allowed to reach steady state levels of infection. Cells were monotreated with protease inhibitor (PI) or ezetimibe or IFN alone or treated with combinations of PI+ezetimibe or PI+IFN or IFN+ezetimibe or a combination of all three inhibitors. Samples were harvested at 24, 48, 72 or 96 hours post-treatment, the intracellular RNA was extracted and RT-qPCR performed to quantify HCV copies.
Thus, parallel cultures of chronically infected Huh7-1 cells were established and subsequently treated with ezetimibe, naringenin or IFN-α, either alone or in combination. Treatments were replenished every 24 hours. Triplicate cultures of each treatment condition were harvested at 24, 48, 72 or 96 hours post-treatment and intracellular HCV levels were quantified by RT-qPCR (FIG. 4A). […] Thus, no evidence of synergy was observed when IFN-α was combined with an egress inhibitor that only blocks cell-free spread.
As an alternative method of determining the therapeutic importance of inhibiting HCV cell-to-cell spread, an inhibitor to TfR1 was used. TfR1 has also been identified as another host cell factor that is involved in cell-free entry of HCV into cells, but is not required for cell-to-cell-mediated HCV entry. Thus, unlike ezetimibe which inhibits both cell-free and cell-to-cell HCV spread, the TfR1 inhibitor, ferristatin, only blocks cell-free virus spread. Again, chronically infected Huh7-1 cell cultures were established and treated with ezetimibe (30 μM), ferristatin (50 μM), or IFN-α (100 U/ml), either alone or in combination and treatments were replenished every 24 hours. Intracellular HCV copies were quantified from triplicate cultures by RT-qPCR at 24, 48, 72 or 96 hours post-treatment (FIG. 4B).
Huh7-1 cells were infected with HCV-JFH-1 and allowed to reach steady state levels of infection. Cells were monotreated with HCV polymerase inhibitor RG7128 (1 μM) or ezetimibe (30 μM) alone or treated with a combination of RG7128 and ezetimibe. […]

[4] = system: HCVcc^G451R; experiment: Infection of Huh7 cells with SR-B1-independent HCVcc G451R, intracellular HCV RNA; format: cell-based, Hepatitis C virus (HCV)
Experimental: Studies have shown that a G451R mutation in the viral envelope glycoprotein (E2) results in HCV virions of […] density and faster infection kinetics (thong, et al. (2006) J. Virol. 80:11082-11093). […] Thus, if ezetimibe was blocking HCV entry via an SR-B1 mediated mechanism, it would be expected that the mutant G451R virus would be less susceptible to the effects of ezetimibe. As a result, experiments were performed to assess the antiviral efficacy of ezetimibe against the SR-B1-independent HCVcc^G451R virus. Monolayers of Huh7 cells were inoculated with either wild-type HCVcc^JFH-1 or HCVcc^G451R at an MOI of 0.01 FFU/cell for 12 hours. Ezetimibe treatment at concentrations of 15 or 30 μM was initiated (and then continued) either 6 hours prior to infection, during the 12 hour incubation of the virus on the cells, or immediately following the 12 hour viral inoculation period. Ezetimibe at a concentration of 30 μM inhibited HCVcc^JFH-1 infection approximately 10-fold at 48 hours post-infection.

Row | Structure (SMILES) | steady state HCVcc RNA levels [1] | establishment of HCV infection (serum HCV RNA) [2] | reduction of HCV levels (FIG. 5) ([3]; RG7128 1 μM, ezetimibe 30 μM, normalized to Mock) | reduction of HCV levels (FIG. 3) ([3]; ezetimibe 30 μM, PI 200 nM, IFN-α 100 U/ml) | decrease in intracellular HCV load (FIG. 4B) ([3]; ezetimibe 30 μM, ferristatin 50 μM, IFN-α 100 U/ml) | reduction of HCV copies (FIG. 4A) ([3]; ezetimibe, naringenin, IFN-α alone or in combination) | infection blocked [4] | increase in intracellular HCV copies (FIG. 4A) ([3]; naringenin alone)
1 | O=C1[C@H](CC[C@H](O)c2ccc(F)cc2)[C@@H](c2ccc(O)cc2)N1c1ccc(F)cc1 [ezetimibe, 1-(4-fluorophenyl)-(3R)-[3-(4-fluorophenyl)-(3S)-hydroxypropyl]-(45)-(4-hydroxyphenyl)-2-azetidinone] | did not inhibit steady state HCVcc RNA levels | prevents the establishment of HCV infection | did not reduce HCV levels | did not reduce HCV levels | neither ezetimibe nor ferristatin alone reduced intracellular HCV load | did not reduce HCV levels | ~100% | –
2 | O=C1C[C@@H](c2ccc(O)cc2)Oc2cc(O)cc(O)c21 [naringenin] | – | – | – | – | – | – | – | about 50%
